Assay results taken from patent publication US11053204B2, “Pyrimidinyloxy benzene derivatives as herbicides” (FMC Corporation, priority 2015, dated 2021).

Tests used:
Format in all cases: in vivo
[1] = test system: wheat (Triticum aestivum); test: Test A postemergence, visual injury rating
How it was run: (§1)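 Greenhouse pot test, loam/sand soil. Formulation: non-phytotoxic solvent mix plus surfactant. Pre: directed spray onto soil after sowing. Post: plants at 1–2 leaf, 2–10 cm. Rated visually vs untreated controls at ~10 d, 0 (no effect) to 100 (complete control).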

corn (Zea mays) = test: Test A postemergence, visual injury rating
How it was run: as §1

kochia (Kochia scoparia) [2] = test: Test A postemergence, visual injury rating
How it was run: as §1

[3] = test system: blackgrass (Alopecurus myosuroides); test: Test A postemergence, visual injury rating
How it was run: as §1

[4] = test system: galium (catchweed bedstraw, Galium aparine); test: Test A postemergence, visual injury rating
How it was run: as §1

[5] = test system: Italian ryegrass (Lolium multiflorum); test: Test A postemergence, visual injury rating
How it was run: as §1

[6] = test system: ragweed (common ragweed, Ambrosia elatior); test: Test A postemergence, visual injury rating
How it was run: as §1

[7] = test system: barnyardgrass (Echinochloa crus-galli); test: Test A postemergence, visual injury rating; settings: 0 is no effect, 100 is complete control; for Barnyardgrass plant response rating: 0 to 100 scale, approximately 10 days
How it was run: as §1

[8] = test system: pigweed (Amaranthus retroflexus); test: Test A postemergence, visual injury rating
How it was run: as §1

[9] = test system: giant foxtail (Setaria faberii); test: Test A postemergence, visual injury rating
How it was run: as §1

kochia (Kochia scoparia) [10] = test: Test A preemergence, visual injury rating
How it was run: as §1

[11] = test system: Italian ryegrass (Lolium multiflorum); test: Test A preemergence, visual injury rating
How it was run: as §1

[12] = test system: ragweed (common ragweed, Ambrosia elatior); test: Test A preemergence, visual injury rating
How it was run: as §1

[13] = test system: barnyardgrass (Echinochloa crus-galli); test: Test A preemergence, visual injury rating
How it was run: as §1

[14] = test system: pigweed (Amaranthus retroflexus); test: Test A preemergence, visual injury rating
How it was run: as §1

[15] = test system: giant foxtail (Setaria faberii); test: Test A preemergence, visual injury rating
How it was run: as §1

[16] = test system: ducksalad (Heteranthera limosa); test: Test B flooded paddy test, plant response rating; settings: 250 g ai/ha; Flood; scale of 0 to 100 where 0 is no effect and 100 is complete control; 13 to 15 days
How it was run: (§2)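 Test compounds are applied straight into paddy water held 3 cm above the soil surface, with that flood maintained for the whole test. After 13 to 15 days in the greenhouse, each species is scored visually relative to controls.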

rice (Oryza sativa) = test: Test B flooded paddy test, plant response rating; settings: 250 g ai/ha; Flood; scale of 0 to 100 where 0 is no effect and 100 is complete control; 13 to 15 days
How it was run: as §2

[17] = test system: barnyardgrass (Echinochloa crus-galli); test: Test B flooded paddy test, plant response rating; settings: 250 g ai/ha; Flood; scale of 0 to 100 where 0 is no effect and 100 is complete control; 13 to 15 days
How it was run: as §2

[18] = test system: sedge, umbrella (small-flower umbrella sedge, Cyperus difformis); test: Test B flooded paddy test, plant response rating; settings: 250 g ai/ha; Flood; scale of 0 to 100 where 0 is no effect and 100 is complete control; 13 to 15 days
How it was run: as §2

[19] = 125 g ai/ha, 0 is no effect, 100 is complete control
[20] = 500 g ai/ha, 0 is no effect, 100 is complete control
[21] = 125 g ai/ha, 0 to 100 scale (0 no effect, 100 complete control)
[22] = 500 g ai/ha, 0 to 100 scale (0 no effect, 100 complete control)
[23] = 31 g ai/ha, 0 to 100 scale (0 no effect, 100 complete control)
[24] = 125 g ai/ha, 0 to 100 scale, 0 is no effect, 100 is complete control, approximately 10 days
[25] = 31 g ai/ha, 0 to 100 scale, 0 no effect, 100 complete control
[26] = 31 g ai/ha, 0 to 100 scale, 0 is no effect, 100 is complete control, approximately 10 days

O=C(OCC1CCC1)c1c(Br)cccc1Oc1ncc(Cl)cn1 [Compound 8]
Wheat plant response rating (0 to 100 scale) [1, 19]: 0
Wheat plant response rating (0 to 100 scale) [1, 20]: 0
Corn plant response rating (0 to 100 scale) (corn (Zea mays); [19]): 0
Corn plant response rating (0 to 100 scale) (corn (Zea mays); [20]): 20
Kochia plant response rating (0 to 100 scale) (kochia (Kochia scoparia) [2]; [19]): 40
Kochia plant response rating (0 to 100 scale) (kochia (Kochia scoparia) [2]; [20]): 80
Blackgrass plant response rating (0 to 100 scale) [3, 19]: 0
Blackgrass plant response rating (0 to 100 scale) [3, 20]: 20
Galium plant response rating (0 to 100 scale) [4, 19]: 60
Galium plant response rating (0 to 100 scale) [4, 20]: 90
Ryegrass, Italian plant response rating (0 to 100 scale) [5, 19]: 0
Ryegrass, Italian plant response rating (0 to 100 scale) [5, 20]: 30
Ragweed plant response rating (0 to 100 scale) [6, 19]: 10
Ragweed plant response rating (0 to 100 scale) [6, 20]: 40
Barnyardgrass plant response rating (0 to 100 scale) ([7]; 125 g ai/ha): 10
Barnyardgrass plant response rating (0 to 100 scale) ([7]; 500 g ai/ha): 40
Pigweed plant response rating (0 to 100 scale) [8, 19]: 50
Pigweed plant response rating (0 to 100 scale) [8, 20]: 90
Foxtail, Giant plant response rating (0 to 100 scale) [9, 19]: 30
Foxtail, Giant plant response rating (0 to 100 scale) [9, 20]: 60
Kochia plant response rating (kochia (Kochia scoparia) [10]; [21]): 0
Kochia plant response rating (kochia (Kochia scoparia) [10]; [22]): 0
Ryegrass, Italian plant response rating [11, 21]: 0
Ryegrass, Italian plant response rating [11, 22]: 30
Ragweed plant response rating [12, 21]: 0
Ragweed plant response rating [12, 22]: 0
Barnyardgrass plant response rating [13, 21]: 30
Barnyardgrass plant response rating [13, 22]: 100
Pigweed plant response rating [14, 21]: 10
Pigweed plant response rating [14, 22]: 60
Foxtail, Giant plant response rating [15, 21]: 100
Foxtail, Giant plant response rating [15, 22]: 100
Plant response rating, Ducksalad [16]: 0
Plant response rating, Rice (rice (Oryza sativa)): 0
Plant response rating, Barnyardgrass [17]: 0
Plant response rating, Sedge, Umbrella [18]: 70

FC(F)(F)CCCCc1c(Oc2ncc(Cl)cn2)cccc1C1CC1 [Compound 135]
Wheat plant response rating [1, 23]: 0
Wheat plant response rating [1, 24]: 0
Corn plant response rating (corn (Zea mays); [23]): 10
Corn plant response rating (corn (Zea mays); [24]): 20
Kochia plant response rating (kochia (Kochia scoparia) [2]; [23]): 10
Kochia plant response rating (kochia (Kochia scoparia) [2]; [24]): 60
Blackgrass plant response rating [3, 23]: 0
Blackgrass plant response rating [3, 24]: 20
Galium plant response rating [4, 23]: 50
Galium plant response rating [4, 24]: 80
Ryegrass, Italian plant response rating [5, 23]: 0
Ryegrass, Italian plant response rating [5, 24]: 10
Ragweed plant response rating [6, 23]: 0
Ragweed plant response rating [6, 24]: 10
Barnyardgrass plant response rating ([7]; 31 g ai/ha): 0
Barnyardgrass plant response rating ([7]; 125 g ai/ha): 10
Pigweed plant response rating [8, 23]: 40
Pigweed plant response rating [8, 24]: 90
Foxtail, Giant plant response rating [9, 23]: 10
Foxtail, Giant plant response rating [9, 24]: 20
Plant response rating, Kochia (kochia (Kochia scoparia) [10]; [25]): 0
Plant response rating, Kochia (kochia (Kochia scoparia) [10]; [21]): 0
Plant response rating, Ryegrass, Italian [11, 25]: 0
Plant response rating, Ryegrass, Italian [11, 21]: 10
Plant response rating, Ragweed [12, 25]: 0
Plant response rating, Ragweed [12, 21]: 0
Plant response rating, Barnyardgrass [13, 25]: 0
Plant response rating, Barnyardgrass [13, 21]: 40
Plant response rating, Pigweed [14, 25]: 0
Plant response rating, Pigweed [14, 21]: 20
Plant response rating, Foxtail, Giant [15, 25]: 0
Plant response rating, Foxtail, Giant [15, 21]: 50
Plant response rating, Ducksalad [16]: 85
Plant response rating, Rice (rice (Oryza sativa)): 20
Plant response rating, Barnyardgrass [17]: 0
Plant response rating, Sedge, Umbrella [18]: 85

FC(F)(F)CCCCCc1c(Br)cccc1Oc1ncc(Cl)cn1 [Compound 121]
Wheat plant response rating [1, 26]: 10
Wheat plant response rating [1, 24]: 10
Corn plant response rating (corn (Zea mays); [26]): 10
Corn plant response rating (corn (Zea mays); [24]): 10
Kochia plant response rating (kochia (Kochia scoparia) [2]; [26]): 20
Kochia plant response rating (kochia (Kochia scoparia) [2]; [24]): 80
Blackgrass plant response rating [3, 26]: 20
Blackgrass plant response rating [3, 24]: 30
Galium plant response rating [4, 26]: 70
Galium plant response rating [4, 24]: 80
Ryegrass, Italian plant response rating [5, 26]: 10
Ryegrass, Italian plant response rating [5, 24]: 20
Ragweed plant response rating [6, 26]: 20
Ragweed plant response rating [6, 24]: 50
Barnyardgrass plant response rating ([7]; 31 g ai/ha): 20
Barnyardgrass plant response rating ([7]; 125 g ai/ha): 40
Pigweed plant response rating [8, 26]: 80
Pigweed plant response rating [8, 24]: 100
Foxtail, Giant plant response rating [9, 26]: 10
Foxtail, Giant plant response rating [9, 24]: 70
Plant response rating, Kochia (kochia (Kochia scoparia) [10]; [25]): 20
Plant response rating, Kochia (kochia (Kochia scoparia) [10]; [21]): 0
Plant response rating, Ryegrass, Italian [11, 25]: 10
Plant response rating, Ryegrass, Italian [11, 21]: 0
Plant response rating, Ragweed [12, 25]: 0
Plant response rating, Ragweed [12, 21]: 0
Plant response rating, Barnyardgrass [13, 25]: 0
Plant response rating, Barnyardgrass [13, 21]: 30
Plant response rating, Pigweed [14, 25]: 0
Plant response rating, Pigweed [14, 21]: 0
Plant response rating, Foxtail, Giant [15, 25]: 30
Plant response rating, Foxtail, Giant [15, 21]: 100
Plant response rating, Ducksalad [16]: 0
Plant response rating, Rice (rice (Oryza sativa)): 35
Plant response rating, Barnyardgrass [17]: 50
Plant response rating, Sedge, Umbrella [18]: 70

O=C(SCCC(F)(F)F)c1c(Br)cccc1Oc1ncc(Cl)cn1 [Compound 71]
Wheat plant response rating [1, 26]: 0
Wheat plant response rating [1, 24]: 0
Corn plant response rating (corn (Zea mays); [26]): 10
Corn plant response rating (0 to 100 scale) (corn (Zea mays); [19]): 20
Kochia plant response rating (kochia (Kochia scoparia) [2]; [26]): 10
Kochia plant response rating (kochia (Kochia scoparia) [2]; [24]): 50
Blackgrass plant response rating [3, 26]: 10
Blackgrass plant response rating (0 to 100 scale) [3, 19]: 30
Galium plant response rating [4, 26]: 30
Galium plant response rating (0 to 100 scale) [4, 19]: 90
Ryegrass, Italian plant response rating [5, 26]: 0
Ryegrass, Italian plant response rating [5, 24]: 20
Ragweed plant response rating [6, 26]: 0
Ragweed plant response rating [6, 24]: 20
Barnyardgrass plant response rating ([7]; 31 g ai/ha): 0
Barnyardgrass plant response rating (0 to 100 scale) ([7]; 125 g ai/ha): 40
Pigweed plant response rating [8, 26]: 30
Pigweed plant response rating [8, 24]: 70
Foxtail, Giant plant response rating [9, 26]: 10
Foxtail, Giant plant response rating (0 to 100 scale) [9, 19]: 40
Plant response rating, Kochia (kochia (Kochia scoparia) [10]; [25]): 0
Kochia plant response rating (kochia (Kochia scoparia) [10]; [21]): 0
Plant response rating, Ryegrass, Italian [11, 25]: 0
Ryegrass, Italian plant response rating [11, 21]: 0
Plant response rating, Ragweed [12, 25]: 0
Ragweed plant response rating [12, 21]: 0
Plant response rating, Barnyardgrass [13, 25]: 0
Barnyardgrass plant response rating [13, 21]: 10
Plant response rating, Pigweed [14, 25]: 0
Pigweed plant response rating [14, 21]: 40
Plant response rating, Foxtail, Giant [15, 25]: 40
Foxtail, Giant plant response rating [15, 21]: 100
Plant response rating, Ducksalad [16]: 90
Plant response rating, Rice (rice (Oryza sativa)): 0
Plant response rating, Barnyardgrass [17]: 0
Plant response rating, Sedge, Umbrella [18]: 95

CC(=NOCCC(F)(F)F)c1c(Br)cccc1Oc1ncc(Cl)cn1 [Compound 98]
Wheat plant response rating [1, 26]: 0
Wheat plant response rating [1, 24]: 10
Corn plant response rating (corn (Zea mays); [26]): 0
Corn plant response rating (corn (Zea mays); [24]): 10
Kochia plant response rating (kochia (Kochia scoparia) [2]; [26]): 0
Kochia plant response rating (kochia (Kochia scoparia) [2]; [24]): 0
Blackgrass plant response rating [3, 26]: 0
Blackgrass plant response rating [3, 24]: 10
Galium plant response rating [4, 26]: 10
Galium plant response rating [4, 24]: 50
Ryegrass, Italian plant response rating [5, 26]: 0
Ryegrass, Italian plant response rating [5, 24]: 0
Ragweed plant response rating [6, 26]: 0
Ragweed plant response rating [6, 24]: 10
Barnyardgrass plant response rating ([7]; 31 g ai/ha): 0
Barnyardgrass plant response rating ([7]; 125 g ai/ha): 10
Pigweed plant response rating [8, 26]: 30
Pigweed plant response rating [8, 24]: 90
Foxtail, Giant plant response rating [9, 26]: 0
Foxtail, Giant plant response rating [9, 24]: 20
Plant response rating, Kochia (kochia (Kochia scoparia) [10]; [25]): 0
Plant response rating, Kochia (kochia (Kochia scoparia) [10]; [21]): 0
Plant response rating, Ryegrass, Italian [11, 25]: 0
Plant response rating, Ryegrass, Italian [11, 21]: 0
Plant response rating, Ragweed [12, 25]: 0
Plant response rating, Ragweed [12, 21]: 0
Plant response rating, Barnyardgrass [13, 25]: 0
Barnyardgrass plant response rating [13, 21]: 30
Plant response rating, Pigweed [14, 25]: 0
Plant response rating, Pigweed [14, 21]: 0
Plant response rating, Foxtail, Giant [15, 25]: 0
Plant response rating, Foxtail, Giant [15, 21]: 40
Plant response rating, Ducksalad [16]: 0
Plant response rating, Rice (rice (Oryza sativa)): 0
Plant response rating, Barnyardgrass [17]: 0
Plant response rating, Sedge, Umbrella [18]: 0
